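Abbreviation: GI50, concentration required for 50% inhibition of growth. TGI is the concentration that stops growth completely.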
How the values were obtained:
Test in all cases: NCI anticancer screen, dose series, 384-well format
[1] = tested on: T-47D breast
[2] = tested on: SK-MEL-28 melanoma
[3] = tested on: SK-OV-3 ovarian
[4] = tested on: A498 renal
[5] = tested on: HOP-62 NSCLC
[6] = tested on: NCI-H23 lung
[7] = tested on: HCC-2998 colon
[8] = tested on: U251 glioblastoma
[9] = tested on: OVCAR-4 ovarian
[10] = tested on: MCF7 breast
[11] = tested on: SK-MEL-5 melanoma
[12] = tested on: MDA-MB-468 breast
[13] = tested on: HL-60(TB) leukemia
[14] = tested on: M14 melanoma
[15] = tested on: MDA-MB-435 melanoma
[16] = tested on: ACHN renal
[17] = tested on: SF-295 CNS
[18] = tested on: HCT-15 colon
[19] = tested on: SR leukemia
[20] = tested on: TK-10 renal
[21] = tested on: 786-0 renal
[22] = tested on: UACC-257 melanoma
[23] = tested on: OVCAR-5 ovarian
[24] = tested on: DU-145 prostate
[25] = tested on: NCI-H226 lung
[26] = tested on: PC-3 prostate
[27] = tested on: UO-31 renal
[28] = tested on: MDA-MB-231 breast
[29] = tested on: SW-620 colon
[30] = tested on: CAKI-1 renal
[31] = tested on: HS 578T breast
[32] = tested on: SNB-19 CNS
[33] = tested on: HT29 colon
[34] = tested on: HOP-92 NSCLC
[35] = tested on: KM12 colon
[36] = tested on: IGROV1 ovarian
[37] = tested on: NCI-H322M lung
[38] = tested on: BT-549 breast
[39] = tested on: MALME-3M melanoma
[40] = tested on: SF-268 CNS
[41] = tested on: SN12C renal
[42] = tested on: CCRF-CEM leukemia
[43] = tested on: OVCAR-3 ovarian
[44] = tested on: EKVX NSCLC
[45] = tested on: NCI-H460 NSCLC
[46] = tested on: LOX IMVI melanoma
[47] = tested on: NCI-H522 lung
[48] = tested on: A549 NSCLC
[49] = tested on: RXF 393 renal
[50] = tested on: SF-539 CNS
[51] = tested on: HCT-116 colon
[52] = tested on: SNB-75 CNS

Compound `O=C(Nc1cn[nH]c1-c1nc2ccc(CN3CCOCC3)cc2[nH]1)NC1CC1` has a GI50 [1] of 2200 nM, a TGI [1] of 6040 nM and a GI50 [2] of 1350 nM. For the same compound, the TGI [2] was 2910 nM, the GI50 [3] was 259 nM and the TGI [3] was 2280 nM. For the same compound, the GI50 [4] was 289 nM, the TGI [4] was 6650 nM and the GI50 [5] was 184 nM. For the same compound, the TGI [5] was 1390 nM, the GI50 [6] was 88.2 nM and the TGI [6] was 2030 nM. It also gave a GI50 [7] of 1360 nM, a TGI [7] of 2810 nM and a GI50 [8] of 228 nM. It also gave a TGI [8] of 1300 nM, a GI50 [9] of 1120 nM and a TGI [9] of 5390 nM. For the same compound, the GI50 [10] was 345 nM, the TGI [10] was 7390 nM and the GI50 [11] was 1260 nM. The TGI [11] was 2670 nM, the GI50 [12] was 16.9 nM and the TGI [12] was 36.7 nM. The GI50 [13] was 13 nM, the TGI [13] was 28.1 nM and the GI50 [14] was 364 nM. For the same compound, the TGI [14] was 2210 nM, the GI50 [15] was 1470 nM and the TGI [15] was 3370 nM. For the same compound, the GI50 [16] was 413 nM, the TGI [16] was greater than 100000 nM and the GI50 [17] was 187 nM. The TGI [17] was 1210 nM, the GI50 [18] was 1540 nM and the TGI [18] was 11600 nM. The TGI [19] was 18.7 nM, the GI50 [20] was 210 nM and the TGI [20] was 706 nM. For the same compound, the GI50 [21] was 261 nM, the TGI [21] was 10200 nM and the GI50 [22] was 2090 nM. For the same compound, the TGI [22] was 4190 nM, the GI50 [23] was 1810 nM and the TGI [23] was greater than 100000 nM. It also gave a GI50 [24] of 651 nM, a TGI [24] of 70400 nM and a GI50 [25] of 85.8 nM. For the same compound, the TGI [25] was 273 nM, the GI50 [26] was 299 nM and the TGI [26] was 13900 nM. For the same compound, the GI50 [27] was 111 nM, the TGI [27] was 1210 nM and the GI50 [28] was 322 nM. For the same compound, the TGI [28] was 2540 nM, the GI50 [29] was 36.3 nM and the TGI [29] was greater than 100000 nM. It also gave a GI50 [30] of 71.8 nM, a TGI [30] greater than 100000 nM and a GI50 [31] of 33.6 nM. For the same compound, the TGI [31] was 73.5 nM, the GI50 [32] was 256 nM and the TGI [32] was 1730 nM. For the same compound, the GI50 [33] was 75.3 nM, the TGI [33] was greater than 100000 nM and the GI50 [34] was 172 nM. The TGI [34] was 10800 nM, the GI50 [35] was 1040 nM and the TGI [35] was 3490 nM. For the same compound, the GI50 [36] was 633 nM, the TGI [36] was greater than 100000 nM and the GI50 [37] was 1290 nM. It also gave a TGI [37] of 3480 nM, a GI50 [38] of 58.7 nM and a TGI [38] of 386 nM. The GI50 [39] was 1420 nM, the TGI [39] was 3080 nM and the GI50 [40] was 103 nM. It also gave a TGI [40] of 436 nM, a GI50 [41] of 1030 nM and a TGI [41] of 2420 nM. For the same compound, the TGI [42] was 28 nM, the GI50 [43] was 156 nM and the TGI [43] was 382 nM. The GI50 [44] was 196 nM, the TGI [44] was 4490 nM and the GI50 [45] was 48.7 nM. For the same compound, the TGI [45] was 1590 nM, the GI50 [46] was 248 nM and the TGI [46] was 1120 nM. For the same compound, the GI50 [47] was 237 nM, the TGI [47] was 835 nM and the GI50 [48] was 800 nM. For the same compound, the TGI [48] was greater than 100000 nM, the GI50 [49] was 22.3 nM and the TGI [49] was 61.2 nM. The GI50 [50] was 168 nM, the TGI [50] was 453 nM and the GI50 [51] was 71 nM. It also gave a TGI [51] greater than 100000 nM, a GI50 [52] of 38.1 nM and a TGI [52] of 113 nM.

— PubChem BioAssay (NCI)
